Consider 2 molecules from patent publication US6730666B1, “Pharmaceutical compositions comprising porphyrins and some novel porphyrin derivatives” (Yeda Research and Development Co. Ltd., priority 1998, dated 2004).

The target of one test is T1, VEGF receptor KDR (Homo sapiens, UniProt P35968).
T1 construct: expressed in transfected cells; host or cells: bovine aortic endothelial cells
The experiment in a line: Binding of 125I-VEGF to endothelial cells transfected with VEGF receptor KDR. On the set-up: species or system bovine. As to conditions: FIG. 10A. The protocol:
Binding of ^125I-VEGF to confluent monolayers of endothelial cells expressing KDR was performed as described in Methods, section (x), in the presence of increasing concentrations of P1 and of unlabeled VEGF; and
x) Binding of ^125I-VEGF to cells. Confluent cultures of bovine aortic endothelial cells transfected with the VEGF receptor KDR were tested for binding of radiolabeled ^125I-VEGF as described in method (iv) above for the FGFR-1 expressing cells.

The next test deals with smooth muscle cells. The experiment in a line: Smooth muscle cell proliferation induced by bFGF. The test is classed as cell-based. As to conditions: 2 μg/ml or 20 μg/ml of P1; bFGF 10 ng/ml; FIG. 16. Here is the method: In order to determine the ability of P1 to inhibit the biological activity of bFGF on cell proliferation, smooth muscle cells were grown in 24-well plates in the presence of bFGF (10 ng/ml) and in the presence of 2 μg/ml or 20 μg/ml of P1. Cell number was determined daily by counting cell samples under a microscope.

Test [1] addresses T2, FGFR-3 (Homo sapiens, UniProt P22607).
T2 construct: soluble FGFR-3 ectodomain alkaline phosphatase fusion protein (FR-3-AP); made in house; host or cells: NIH 3T3 cells (conditioned medium)
T2 sequence (P22607 23-375 limits assumed): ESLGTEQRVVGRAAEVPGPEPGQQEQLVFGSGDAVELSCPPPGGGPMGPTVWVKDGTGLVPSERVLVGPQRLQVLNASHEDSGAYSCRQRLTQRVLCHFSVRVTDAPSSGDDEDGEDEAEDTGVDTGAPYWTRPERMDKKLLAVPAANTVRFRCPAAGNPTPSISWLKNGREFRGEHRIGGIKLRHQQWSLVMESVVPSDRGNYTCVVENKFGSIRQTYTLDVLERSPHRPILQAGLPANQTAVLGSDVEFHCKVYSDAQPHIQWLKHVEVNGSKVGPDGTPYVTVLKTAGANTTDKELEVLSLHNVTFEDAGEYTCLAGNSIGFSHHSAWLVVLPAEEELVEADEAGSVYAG
As to the kind of experiment: Binding of 125I-FGF9 to immobilized soluble FGFR-3 (FR-3-AP). As to conditions: FIG. 11. The protocol:
Incubations were performed in the presence of 100 ng/ml heparin and increasing concentrations of porphyrins. […] Results represent the mean value in one of at least two independent experiments.
(iii) Binding of ^125I-bFGF or ^125I-FGF9 to s luble FGFR-1 or FGFR-3. Conditioned medium from NIH 3T3 cells secreting soluble FRAP or FGFR-3 FR-3-AP, was incubated for 45 min at room temperature with rabbit anti-human placental AP antibodies (generated as described in Ornitz et al, 1991) prebound to agarose-protein A beads Pierce). The FGFR-1 or FGFR-3-coupled beads were washed three times with 1 ml HNTG and incubated with 2 ng/ml of ^125I-FGF, 1 μg/ml of heparin and porphyrin/corrole compound at different concentrations for 1 h at room temperature. High affinity-bound ^125I-bFGF was determined by counting of the samples in a γ-counter.
Thus, the compounds were tested for their capacity to inhibit binding of a soluble FGFR-3 ectodomain alkaline phosphatase fusion protein (FR-3-AP) to FGF-9, utilizing a cell free system, similar to the one described for FGFR-1 in Example 1 above, and measuring the binding of radiolabeled ^125I-FGF-9 to soluble FGFR-3.

Test [2] concerns the target T3, FGFR-3 (Homo sapiens, UniProt P22607).
T3 construct: expressed in transfected cells; host or cells: CHO cells (mutant 745)
The experiment in a line: Binding of 125I-FGF9 to CHO cells transfected with FGFR-3. Conditions: FIG. 12. The protocol: CHO mutant cells-745 expressing FGFR-3 were incubated for 90 min at 4° C. in the presence of increasing concentrations of the porphyrins, with 1 μg/ml of heparin and ^125I-FGF9 (2 ng/ml). The binding medium was discarded and the cells were washed with ice cold DMEM/BSA. To determine receptor binding of ^125I-FGF9, the cells were incubated in cold PBS (pH 4) containing 1.6M NaCl and 25 mM HEPES, and the cell extract was counted in a γ-counter.
(iv) Binding of ^125I-bFGF and ^125I-FGF9 to cells. Confluent cultures of CHO cells expressing FGFR-1(Yayon et al, 1991) or FGFR-3 (Hecht et al, 1995) in 24-well plates (Falcon) were precooled and washed twice with cold DMEM supplemented with 20 mM Hepes (pH 7.5) and 0.1% bovine serum albumin (DMEM/BSA). They were then incubated for 1.5 h at 4° C. with ^125I-bFGF (2 ng/ml) and increasing concentrations of porphyrin/corrole compound. The binding medium was discarded and the cells were washed once with ice-cold DMEM/BSA and twice with cold PBS (pH 7.5) containing 1.6M NaCl. […] Non-specific binding was determined in the presence of a 100-fold excess of unlabeled bFGF.
T3 sequence (P22607 23-806, species assumed): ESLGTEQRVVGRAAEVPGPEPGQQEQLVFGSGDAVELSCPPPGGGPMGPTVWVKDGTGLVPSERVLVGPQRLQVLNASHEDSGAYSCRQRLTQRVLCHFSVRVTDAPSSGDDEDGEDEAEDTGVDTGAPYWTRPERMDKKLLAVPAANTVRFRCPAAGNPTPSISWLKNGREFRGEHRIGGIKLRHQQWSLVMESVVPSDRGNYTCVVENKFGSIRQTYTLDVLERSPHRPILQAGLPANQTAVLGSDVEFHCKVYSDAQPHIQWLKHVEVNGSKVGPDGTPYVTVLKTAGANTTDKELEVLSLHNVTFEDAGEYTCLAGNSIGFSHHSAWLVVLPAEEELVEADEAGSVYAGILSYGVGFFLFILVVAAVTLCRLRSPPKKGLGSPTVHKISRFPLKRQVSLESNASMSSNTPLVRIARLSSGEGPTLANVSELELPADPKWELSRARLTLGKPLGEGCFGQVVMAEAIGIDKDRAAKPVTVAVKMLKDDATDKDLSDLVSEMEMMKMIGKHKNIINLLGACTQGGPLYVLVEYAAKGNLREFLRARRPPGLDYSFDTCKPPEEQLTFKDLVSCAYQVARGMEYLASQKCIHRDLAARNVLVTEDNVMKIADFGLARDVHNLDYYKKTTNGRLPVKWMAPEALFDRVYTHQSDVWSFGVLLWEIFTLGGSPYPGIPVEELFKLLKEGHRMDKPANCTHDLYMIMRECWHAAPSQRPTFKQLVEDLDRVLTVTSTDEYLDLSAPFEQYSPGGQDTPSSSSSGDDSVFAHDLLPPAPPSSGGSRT

Test [3] addresses T3, FGFR-3. As to the kind of experiment: FGFR-3 tyrosine phosphorylation immunoblot (FGF-9 induced). Conditions: FIG. 14. Type of test: cell-based. The protocol: (§1) (viii) Immunoblots. To the overnight serum-starved cells (2 plates for each treatment), 500 μl of F12^++ medium were added which either contained or not the respective porphyrin or corrole compound in a final concentration of […] for 40 min at 37° C. One of the two plates of each treatment was then stimulated with FGF9 (+) (75 ng/ml) and to the second plate only medium (−) was added for 10 min at 37° C. The cells were washed twice with PBS. 600 μl of SBN lysis buffer containing 1% NP-40 and 1 mM vanadate were added and left on ice for 10 min. The plates were then scraped and left on ice for additional 10 min. The lysate was span down in Eppendorf centrifuge for 15 min, 15000 rpm at 4° C. The supernatants were kept and Bradford protein determinant on assay was performed in the samples. 500 μg protein from each sample were taken for immunoprecipitation with 7.5 μl antibody against FGFR-3, 4 hr at 4° C.
In order to measure the ability of the porphyrins to inhibit the receptor activation on an enzymatic level as well, FGFR-3 tyrosine phosphorylation was measured in the presence of P16, as described in Methods, section (viii).
On the technique in general: In western blotting, separated proteins are transferred to a membrane and probed.

For another test, the system named is PLC-γ. The experiment in a line: PLC-γ phosphorylation in FGFR-3 expressing cells induced by FGF-9. The test is classed as cell-based. As to conditions: FIG. 15A. The protocol:
as §1
(§2) These findings support the notion that the porphyrins can serve for treating FGFR-3 related growth disorders. ERK1 and ERK2 are two isoforms of ERK.

The subject of the next test is ERK. As to the kind of experiment: ERK phosphorylation in FGFR-3 expressing cells induced by FGF-9. Type of test: cell-based. As to conditions: FIG. 15B. Here is the method:
as §1, §2

T1 sequence (P35968 20-1356): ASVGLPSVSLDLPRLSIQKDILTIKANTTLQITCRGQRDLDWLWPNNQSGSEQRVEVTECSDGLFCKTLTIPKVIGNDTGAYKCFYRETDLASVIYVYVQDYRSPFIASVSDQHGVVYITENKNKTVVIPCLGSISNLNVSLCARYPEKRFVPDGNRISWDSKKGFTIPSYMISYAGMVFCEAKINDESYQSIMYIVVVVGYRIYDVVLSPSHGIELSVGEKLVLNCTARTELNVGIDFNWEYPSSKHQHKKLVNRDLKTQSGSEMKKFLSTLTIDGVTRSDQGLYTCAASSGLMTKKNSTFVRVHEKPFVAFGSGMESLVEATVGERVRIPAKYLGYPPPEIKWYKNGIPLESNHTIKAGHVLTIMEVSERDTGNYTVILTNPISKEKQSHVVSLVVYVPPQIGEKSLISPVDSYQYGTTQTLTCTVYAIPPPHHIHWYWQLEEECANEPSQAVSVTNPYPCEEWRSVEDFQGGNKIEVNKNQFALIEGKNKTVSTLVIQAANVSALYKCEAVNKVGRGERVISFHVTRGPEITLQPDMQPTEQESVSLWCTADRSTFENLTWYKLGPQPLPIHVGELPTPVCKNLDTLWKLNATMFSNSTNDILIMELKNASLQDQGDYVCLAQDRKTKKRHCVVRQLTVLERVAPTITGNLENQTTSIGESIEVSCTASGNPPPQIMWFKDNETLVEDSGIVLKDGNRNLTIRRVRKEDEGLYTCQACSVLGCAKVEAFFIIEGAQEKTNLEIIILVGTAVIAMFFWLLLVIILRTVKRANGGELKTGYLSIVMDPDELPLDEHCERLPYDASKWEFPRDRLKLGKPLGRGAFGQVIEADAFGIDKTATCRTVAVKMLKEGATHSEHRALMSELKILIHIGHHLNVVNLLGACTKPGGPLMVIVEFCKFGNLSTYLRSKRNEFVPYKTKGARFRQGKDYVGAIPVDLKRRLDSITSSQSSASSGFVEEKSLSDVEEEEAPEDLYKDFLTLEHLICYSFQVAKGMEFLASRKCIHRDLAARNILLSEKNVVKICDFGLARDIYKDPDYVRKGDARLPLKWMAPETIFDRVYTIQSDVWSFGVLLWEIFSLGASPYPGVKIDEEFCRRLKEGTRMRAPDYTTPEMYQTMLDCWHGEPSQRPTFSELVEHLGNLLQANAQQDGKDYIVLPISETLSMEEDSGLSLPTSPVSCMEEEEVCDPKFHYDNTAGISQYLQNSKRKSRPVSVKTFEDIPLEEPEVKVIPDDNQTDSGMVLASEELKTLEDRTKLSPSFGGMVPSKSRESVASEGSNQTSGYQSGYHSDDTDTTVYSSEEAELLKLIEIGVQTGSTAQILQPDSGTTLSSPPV

Turning to `C[n+]1ccc(-c2c3nc(c(-c4cc[n+](C)cc4)c4ccc([nH]4)c(-c4cc[n+](C)cc4)c4nc(c(-c5cc[n+](C)cc5)c5ccc2[nH]5)C=C4)C=C3)cc1` [Compound P1, 5,10,15,20-Tetrakis(N-methyl-4-pyridylium)-21H,23H-porphine tetra-p-tosylate], the “Inhibition of 125I-VEGF binding to KDR/flk-1 expressing cells, in words” value on VEGF receptor KDR is given as “efficiently inhibits”. Moreover, the “Effect on smooth muscle cell proliferation induced by bFGF” value in the test with smooth muscle cells was “strong inhibitory effect”.

As to `C[n+]1ccc(-c2c3nc(c(-c4cc[n+](C)cc4)c4ccc([nH]4)c(-c4c(F)c(F)c(F)c(F)c4F)c4nc(c(-c5cc[n+](C)cc5)c5ccc2[nH]5)C=C4)C=C3)cc1.[I-].[I-].[I-]` [Compound P16, 5-Pentafluorophenyl-10,15,20-tris(N-methyl-4-pyridylium)-21H,23H-porphine triiodide], at FGFR-3 [1], the “Relative potency in FGF-9/FGFR-3 soluble receptor assay, in words” value is recorded as “more potent”. In addition, the “IC50, FGF-9 binding in the cellular receptor system” value on FGFR-3 [2] turned out to be 0.1 mg/L. For the same molecule, the “Effect on FGFR-3 tyrosine phosphorylation” value at FGFR-3 [3] is reported as “reduced both the basal and, to a much greater extent, the FGF-9 induced phosphorylation of FGFR-3”. Besides, the “Effect on PLC-γ activation” value with PLC-γ is given as “clear reduction in the activation”. Also, the “Effect on ERK activation” value in the test with ERK is given as “clear reduction in the activation”.
